We go through one substance from patent US8697841B2, “Peptide for transmigration across blood brain barrier and delivery systems comprising the same” (Industrial Technology Research Institute, priority 2009, dated 2014).

The nature of the test: Hot plate test (PD study). The test is classed as in vivo, mice. Conditions: 7.5 mg/kg EM-1, intravenous injection. The protocol:
Hot-plate test was used to evaluate thermal pain reflexes due to footpad contact with a heated surface. The response of the animals to the hot plate reflects a nociceptive behavior, which involves complex circuit integration in the central nervous system.
Briefly, the mice were individually placed on a […] hot plate apparatus and the time until onset of licking the hindlimb was measured. Basal latency was approximate 2 sec, and cut-off time in the absence of a response (T2) was set at 45 sec. The inhibition of the hindlimb-licking responses were expressed as percent maximal possible effect (% MPE) which was calculated as [(T1−T0)/(T2−T0)]×100, where T0 and T1 were the hot-plate latencies before and after intravenous injection of the EM-1 formulations. The hot-plate latency was determined 10, 20, 30, 60, 120, 180 and 210 min after the formulation injection (7.5 mg/kg EM-1), and the AUC (the area under a curve) values for MPE % versus time (min) plots were calculated.
A general note: In hot-plate and tail-flick tests a longer latency is read as antinociception.

With endomorphin-1 [EM-1], the “analgesic effect (nociceptive responses) in hot-plate test” value is on record as “did not reduce the nociceptive responses”.
